Test results published in BigSolDB 2.1.

Nc1ccc(Cl)cc1[N+](=O)[O-]
solubility (mole fraction)
Conditions | 278.15 K | 283.15 K | 288.15 K | 293.15 K | 298.15 K | 303.15 K | 308.15 K | 313.15 K | 318.15 K | 323.15 K
in 1,4-dioxane | – | – | 0.0282 | 0.0337 | 0.0405 | 0.0509 | 0.065 | 0.0828 | 0.105 | 0.133
in NMP | 0.0539 | 0.0605 | 0.0737 | 0.0887 | 0.106 | 0.125 | 0.142 | 0.167 | 0.187 | 0.223
in acetonitrile | 0.0327 | 0.0373 | 0.0442 | 0.053 | 0.0625 | 0.075 | 0.09 | 0.105 | 0.124 | 0.145
in cyclohexane | 0.000163 | 0.000195 | 0.000267 | 0.000354 | 0.000468 | 0.000613 | 0.000773 | 0.000983 | 0.00124 | 0.0016
in ethanol | 0.013 | 0.0144 | 0.0168 | 0.0194 | 0.0232 | 0.0277 | 0.0323 | 0.0371 | 0.043 | 0.0493
in ethyl acetate | 0.0193 | 0.0244 | 0.032 | 0.0418 | 0.0535 | 0.0684 | 0.0883 | 0.113 | 0.143 | 0.177
in ethylene glycol | 0.00179 | 0.00229 | 0.00281 | 0.00363 | 0.00453 | 0.00573 | 0.00737 | 0.00926 | 0.0118 | 0.0158
in isopropanol | 0.0111 | 0.0123 | 0.0145 | 0.0175 | 0.0208 | 0.0252 | 0.0296 | 0.0352 | 0.0406 | 0.0463
in methanol | 0.0158 | 0.017 | 0.0199 | 0.0239 | 0.0287 | 0.034 | 0.0403 | 0.0479 | 0.056 | 0.0667
in n-butanol | 0.00963 | 0.0107 | 0.0124 | 0.0146 | 0.0177 | 0.0215 | 0.0257 | 0.0301 | 0.0357 | 0.0427
in n-propanol | 0.0119 | 0.013 | 0.0152 | 0.018 | 0.0217 | 0.0259 | 0.0308 | 0.0362 | 0.042 | 0.0481
in water | 8e-06 | 1e-05 | 1.4e-05 | 1.9e-05 | 2.5e-05 | 3.3e-05 | 4.3e-05 | 5.5e-05 | 7e-05 | 8.6e-05
